These results are taken from PubChem BioAssay (NCI).

What all share (experiment): NCI anticancer screen, dose series, 48 h
Assay [1] relates to MALME-3M melanoma.
The test system of assay [2] is SR leukemia.
The subject of assay [3] is K-562 leukemia.
Assay [4] has as its system HT29 colon.
In assay [5] the test system is HOP-92 NSCLC.
Assay [6] concerns LOX IMVI melanoma.
The subject of assay [7] is SF-295 CNS.
The test system of assay [8] is OVCAR-3 ovarian.
The subject of assay [9] is HCT-116 colon.
Assay [10] relates to NCI-H226 lung.

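Tested at 5 concentrations; 48 h exposure; 96-well plates; endpoints linearly interpolated, else capped at highest concentration. GI50: concentration for 50% inhibition of growth. TGI: total growth inhibition.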 A value given as a limit tells only on which side of the number the result lay.

Turning to `O=C(O)C(O)c1ccc(F)cc1` (configuration not stated), the TGI in [1], in [2], in assay [3], in [4], in [5] and in assay [6] was greater than 100 µM each time. Besides, the TGI in assay [7], in assay [8] and in [9] was greater than 100 µM in each case.

For the compound `CC(=O)Nc1ccc2c(c1)CN1C(=O)c3ccccc3C1=N2`, the GI50 in [1], in assay [2], in [3], in assay [10], in assay [5] and in assay [6] was greater than 100 µM in each case. The GI50 in [7], in assay [8] and in assay [9] was greater than 100 µM throughout. The TGI in assay [1], in assay [2], in assay [3], in assay [10], in assay [5] and in assay [6] was greater than 100 µM in each case. The TGI in [7], in assay [8] and in assay [9] was greater than 100 µM each time.

For the compound `C(/C=C/N1CCCC1)=C\c1nc(N2CCCC2)c2ccccc2n1`, the TGI amounted to 33 µM in assay [1]; 33.9 µM in assay [2]; 35.6 µM in assay [3]; 39.4 µM in [4]; 39.7 µM in assay [10]; 32 µM in assay [6]. Besides, the TGI was found to be 35.4 µM in assay [7], 29.7 µM in [8] and 33.8 µM in assay [9].

Consider `Cc1cc(C(=O)Nc2cc(Nc3ncccc3-c3ncnc4nc[nH]c34)ccc2F)cc(C(C)(C)C#N)c1`, for which the GI50 in assay [2] was 1.99 µM; in [3], 0.306 µM; in assay [4], 0.0739 µM; in assay [10], 0.527 µM; in [5], 0.145 µM; in [6] it was 0.0414 µM. The GI50 was 4.45 µM in [7], 5.99 µM in assay [8] and 0.151 µM in [9]. Also, the TGI in [2] is 45.3 µM; in assay [3], greater than 100 µM; in assay [4] it was greater than 100 µM; in assay [10] it was greater than 100 µM; in assay [5], 1.45 µM; in [6] it was 0.338 µM. Further, the TGI is greater than 100 µM in assay [7], greater than 100 µM in assay [8] and greater than 41.9 µM in assay [9].

Turning to `CCCCCCCCCCCCCCCCCCNC(=O)[C@H]1CSC(c2ccc(F)c(OC)c2)N1` (some centres not stated), the GI50 in [1] is 0.951 µM; in assay [2], 0.637 µM; in assay [3], 0.774 µM; in assay [4], 1.03 µM; in [10] it was 0.773 µM; in [5], 1.66 µM. For the same compound, the GI50 in assay [6] is 0.788 µM; in [7], 2.14 µM; in [9] it was 0.835 µM. The TGI was 1.82 µM in [1]; 1.91 µM in assay [2]; 2.45 µM in [3]; 2.12 µM in assay [4]; 1.58 µM in assay [10]; 4.61 µM in [5]. The TGI in assay [6] was 2.07 µM; in assay [7], 13.7 µM; in assay [9], 1.64 µM.

On to `COc1ccc(-c2conc2-c2ccccc2)cc1`, for which the GI50 in [1] was 4.95 µM; in [2], 0.155 µM; in assay [3] it was 0.0603 µM; in assay [4], 0.112 µM; in assay [10], 2.42 µM; in assay [5], 4.58 µM. The GI50 in assay [6] is 0.612 µM; in [7], 0.317 µM; in assay [9], 0.318 µM. In addition, the TGI in [1] was greater than 80.1 µM; in assay [2], greater than 100 µM; in assay [3], greater than 100 µM; in assay [4], greater than 100 µM; in assay [10] it was greater than 25.6 µM; in assay [5], greater than 76.4 µM. Moreover, the TGI in assay [6], in assay [7] and in assay [9] was greater than 100 µM throughout.

Regarding `C/C(=N\O)[C@H]1CC[C@@]2(C)[C@@H]3CC[C@H]4C(C)(C)/C(=N/O)CC[C@@]45CC35CC[C@]12C` (some centres not stated), the GI50 is 1.85 µM in [2]; 3.42 µM in assay [3]; 5.56 µM in assay [4]; 5.03 µM in assay [10]; 2.09 µM in assay [5]; 0.759 µM in assay [6]. Further, the GI50 in assay [9] is 2.45 µM. The TGI in assay [2] is greater than 16.7 µM; in [3], greater than 16.7 µM; in assay [4], greater than 16.7 µM; in assay [10], greater than 16.7 µM; in assay [5], 5.45 µM; in [6], 4.1 µM. In [9], this compound had a TGI of 5.77 µM.

As to `O=C1OC(c2ccc(Cl)c3ccccc23)c2ccccc21` (configuration not stated), the TGI in [1], in assay [2], in assay [3], in [4], in [5] and in [7] was greater than 100 µM throughout. For the same compound, the TGI in [9] is greater than 100 µM.

For the compound `O=C1[C@H]2ON(c3ccccc3)C(c3cccc([N+](=O)[O-])c3)[C@H]2C(=O)N1c1ccc(Cc2ccc(N3C(=O)[C@@H]4ON(c5ccccc5)C(c5cccc([N+](=O)[O-])c5)[C@@H]4C3=O)cc2)cc1` (some centres not stated), the TGI in assay [1], in [2], in [3], in [4], in [10] and in [6] was greater than 100 µM throughout. The TGI in assay [7], in assay [8] and in assay [9] was greater than 100 µM in each case.

With `C=C(C[N+](C)(C)C)N/N=C/c1oc(-c2ccc(OC)c(OC)c2)c(-c2ccc(OC)c(OC)c2)c1[N+](=O)[O-]`, the TGI in assay [2] was 23.9 µM; in [3], 52.5 µM; in assay [4], 32.1 µM; in assay [10] it was 66.3 µM; in assay [5] it was 96.2 µM; in assay [6] it was 28.9 µM. Further, the figures for the TGI in [7], in assay [8] and in assay [9] were 39.6 µM, 71.6 µM and 32.5 µM, respectively.

For the compound `CC12O[Te]34OC1(C)C(C)(O3)C2(C)O4`, the TGI turned out to be 32.7 µM in [1]; 34 µM in assay [2]; 30.3 µM in assay [4]; 44.6 µM in [10]; 16.4 µM in assay [6]; 18.3 µM in assay [7]. In addition, the TGI in assay [8] was 30.4 µM; in assay [9] it was 23.2 µM.
